Source: article PMC5154303, “Flavonol and imidazole derivatives block HPV16 E6 activities and reactivate apoptotic pathways in HPV^+ cells” (Cell Death & Disease, 2016)
Where two headings read alike, the source gives them in different places.

Tests used:
GST-E6/His-caspase 8 = target: T1, GST-E6/His-caspase 8 (Human papillomavirus type 16, UniProt P03126); test: AlphaScreen bead-based binding assay GST-E6/His-caspase 8; design: species or system HPV 16; conditions: for EC50 for GST-E6/His-caspase 8 interaction: bead-based assay, 1.4 μM–3.2 mM tested
T1 construct: made in house
T1 sequence (P03126 whole entry): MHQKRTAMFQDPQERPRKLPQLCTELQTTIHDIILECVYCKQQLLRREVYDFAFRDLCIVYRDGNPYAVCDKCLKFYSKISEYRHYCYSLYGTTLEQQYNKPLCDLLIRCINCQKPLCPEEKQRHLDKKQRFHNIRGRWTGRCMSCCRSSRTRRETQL
Method: (§1) Figure 2 3-(1H-indol-1yl)propan-1-amine (1), three benzimidazole derivatives (2–4), and spinacine (5) inhibit protein–protein interactions. Five compounds at the indicated concentrations (1.4 μM–3.2 mM) were tested using our bead-based screening assay for their ability to inhibit three different protein/protein interactions: (a) GST-E6/His-caspase 8; (b) GST-E6/HisE6AP; and (c) GST-caspase 8/His-caspase 8. Binding in the presence of 1.4 μM of the test compound was set at 100%. Experiments were performed in triplicate, and error bars indicate the S.D.
(§2) The construction of the pGEX-E6, pTriEx-E6AP, and pTriEx-Caspase-8 DED plasmids has been reported.[33] Expression and purification of GSTE6, His-E6AP, and His-Caspase-8 DED were carried out as previously described.[33], [37] GST-tagged and His-tagged proteins were diluted into GST dilution buffer (PBS pH 8.0, 5% glycerol, 2 mM DTT) and His dilution buffer (20 mM Hepes pH 7.4, 150 mM NaCl, 2 mMKCl, 5% glycerol, 2 mM DTT), respectively. Protein concentration was measured using Coomassie Plus – The Better Bradford Assay Reagent (Thermo Scientific, Waltham, MA, USA). Purity of the isolated proteins was estimated following separation by sodium dodecyl sulfate-polyacrylamide gel electrophoresis (SDS-PAGE) and Coomassie staining.
(§3) AlphaScreen Technology was used to assess the interactions between GST-E6, GST-caspase 8, His-E6AP, and His-caspase 8. Binding assays were performed in white 384-well plates (Perkin-Elmer) in a total volume of 25 μl as previously described.[33] Briefly, 5 μl (50 ng) of GST-E6 and 5 μl (87.5 ng) of His-caspase 8 were included in each reaction mixture with 5 μl blocking buffer (0.5 mg BSA, 0.5% Tween 20 in PBS) in the absence or presence of 10 μM of each test chemical. Members of the library were present at 10 μM in DMSO. After a 1-h incubation of the mixture at room temperature, 5 μl donor beads and 5 μl acceptor beads (Perkin-Elmer) were added to each well according to the manufacturer's protocol. The mixture was incubated in the dark at room temperature overnight, and the emitted signal was detected using the Envision Multilabel plate reader (Perkin-Elmer). In the presence of test chemicals, the binding affinity was calculated as a percentage of the binding in the presence of carrier only (DMSO).

GST-E6/His-E6AP = target: T2, GST-E6/His-E6AP (Human papillomavirus type 16, UniProt P03126); test: AlphaScreen bead-based binding assay GST-E6/His-E6AP; design: species or system HPV 16; conditions: for EC50 for GST-E6/His-E6AP interaction: bead-based assay, 1.4 μM–3.2 mM tested
T2 construct: made in house
T2 sequence (P03126 whole entry): as above
Method: as §1, §2, §3

[1] = target: GST-caspase 8/His-caspase 8 (Homo sapiens, UniProt Q14790); test: AlphaScreen counter-screen GST-caspase 8/His-caspase 8; assay type: binding
Chain of GST-caspase 8/His-caspase 8 (Q14790 1-184): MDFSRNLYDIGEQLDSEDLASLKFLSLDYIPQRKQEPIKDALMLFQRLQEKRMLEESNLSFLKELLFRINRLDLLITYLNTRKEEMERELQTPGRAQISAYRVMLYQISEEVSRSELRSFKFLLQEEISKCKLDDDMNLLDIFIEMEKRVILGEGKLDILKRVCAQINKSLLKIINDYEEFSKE
Method: as §1
To ask whether this inhibition was specific, we employed a counter-screening assay in which we assessed the ability of candidates to inhibit the binding of GST-caspase 8 to His-caspase 8; those that did were to be eliminated. In this counter-screening assay, the materials in each well were the same as in the primary screen, with the exception that GST-caspase 8 replaced GST-E6.
as §3

SiHa cells = test: TRAIL-induced apoptosis in SiHa cells (MTT); assay type: cell-based, human; conditions: SiHa cells, compound 4 h prior to TRAIL 100 ng/ml + cycloheximide 5 μg/ml, overnight, MTT
Method: Figure 3 (a) HPV^+ SiHa cells are resistant to TRAIL-induced apoptosis as compared with the human osteosarcoma cell line U2OS. Cells (2 × 10^4 cells per well) were seeded into a 96-well plate, allowed to incubate overnight, and then treated with the indicated concentration of TRAIL in the presence of cycloheximide (5 μg/ml). The viability of cells was measured after overnight incubation using the MTT assay; the viability of cells untreated with TRAIL was set at 100% for each group. (b) The indicated concentrations of three small molecules were added to SiHa cells, and an MTT assay was preformed after overnight incubation. The viability of cells untreated with small molecules was set as 100%. (c) The indicated concentrations of myricetin or spinacine were added 4 h prior to TRAIL (100 ng/ml) in the presence of cycloheximide (5 μg/ml) and incubated at 37 °C overnight. The viability of cells untreated with small molecules was set at 100%. (d and e) SiHa cells (2 × 10^4 cells per well) were seeded into a 96-well plate and allowed to incubate overnight. In all, 100 μM of myricetin and 50 μM of spinacine were added 4 h prior to either (d) doxorubicin or (e) cisplatin. Cell viability was measured after overnight incubation using the MTT assay, and the viability of cells untreated with either myricetin or spinacine was set at 100%. Experiments were performed in triplicate, and error bars indicate the S.D.
Figure 5 Myricetin and spinacine (5) can re-sensitize HPV^+, but not HPV^−, cells to treatment with TRAIL. SiHa (2 × 10^4 cells per well) and C33A cells (1 × 10^4 cells per well) were seeded into a 96-well plate and allowed to incubate overnight, and then cells were pretreated in the presence or absence of (a) myricetin (100 μM) or (b) spinacine (50 μM) for 4 h. The indicated concentration of TRAIL along with cycloheximide (5 μg/ml) was added, and the cells were allowed to incubate overnight. Cell viability was measured by MTT assay, and the viability of cells untreated with TRAIL was set at 100%. Experiments were performed in triplicate, and error bars indicate the S.D.
The extracellular domain of human TRAIL was cloned into a pTriEx expression plasmid containing N-terminal Hisx6 tag. His-TRAIL was expressed in the E. coli BL-21 pLys strain and purified as previously described. Doxorubicin and cisplatin were purchased from Sigma. His-TRAIL, doxorubicin, and cisplatin were diluted in PBS to the desired concentration before using. To measure cell survival following treatment with TRAIL, cisplatin and doxorubicin, SiHa (2 × 10^4/well), C33A (1 × 10^4/well), and HNSCC cells (2 × 10^4/well) were seeded into 96-well plates and allowed to adhere overnight. Small molecules at the desired concentration were added and incubated at 37 °C for 4 h. As indicated, TRAIL, cisplatin, or doxorubicin was then added. The TRAIL treatment group contained cycloheximide (5 μg/ml) to inhibit de novo protein synthesis, and the cells were incubated for 16 h prior to measuring cell viability by the MTT assay preformed as described previously.[38] All experiments were repeated at least three times (three biological replicates, carried out on different days), with each experimental group measured in triplicate within each of these individual experiments. Data presented are from a representative experiment.

[2] = counter-screen, bead-based assay, 1.4 μM–3.2 mM tested

| SMILES | EC50 (GST-E6/His-caspase 8) [µM] | EC50 (GST-E6/His-E6AP) [µM] | EC50 ([1]; counter-screen, bead-based assay, 1.4 μM–3.2 mM tested, read-out: EC50 for GST-caspase 8/His-caspase 8 interaction) [µM] | EC50 [1] [µM] | EC50 for GST-E6/His-caspase 8 interaction (GST-E6/His-caspase 8) | EC50 for GST-E6/His-E6AP interaction (GST-E6/His-E6AP) | EC50 for GST-caspase 8/His-caspase 8 interaction [1, 2] | EC50 for TRAIL-induced apoptosis (SiHa cells) |
| --- | --- | --- | --- | --- | --- | --- | --- | --- |
| NCCCn1ccc2ccccc21 [compound 1, 3-(1H-indol-1-yl)propan-1-amine methanesulfonate] | 630 | 670 | 830 | – | – | – | – | – |
| c1ccc2[nH]cnc2c1 [compound 2, benzimidazole] | 1040 | 1480 | – | 1050 | – | – | – | – |
| OCn1cnc2ccccc21 [compound 3, 1H-benzimidazole-1-methanol] | – | – | – | – | No Inhibition | No Inhibition | No Inhibition | No sensitization |
| COCc1nc2ccccc2[nH]1 [compound 4, 2-(methoxymethyl)-1H-benzimidazole] | – | – | – | – | No inhibition | No inhibition | No inhibition | – |
